Results on one molecule are retold here after patent US8618101B2, “N-((1R,2S,5R)-5-(tert-butylamino)-2-((S)-3-(7-tert-butylpyrazolo[1,5-a][1,3,5]triazin-4-ylamino)-2-oxopyrrolidin-1-yl)cyclohexyl)acetamide, a dual modulator of chemokine receptor activity, crystalline forms and processes” (Bristol-Myers Squibb Company, priority 2009, dated 2013).

For data set [1], the target named is T1, CCR-5 (Homo sapiens, UniProt P51681).
T1 construct: human peripheral T cells was used as a source of CCR-5; endogenous in cells; host or cells: human peripheral T cells from donors pre-screened for high CCR-5 expression
Nature of the data set: CCR-5 chemotaxis, MIP-1β-induced, peripheral T cells. The data set is classed as cell-based. The text has this:
(§1) Therefore, blood donors were pre-screened for high T-cell expression of CCR-5. hPBMCs were first isolated from human whole blood by standard protocol with Ficoll-Hypaque. Flow cytometric analysis was then used to measure CCR-5 expression on T cells following staining with anti-CCR-5 antibody plus anti-CD4 antibody or anti-CD8 antibody. Those blood donors in which >5% peripheral T cells (CD4^+ and CD8^+) express CCR-5 were requested to provide blood again for isolation of PBMCs and, subsequently, of T cells using a standard E-rosetting technique which relies on the unique ability of T cells to bind to sheep red blood cells (RBCs).
A similar procedure to that set forth above was adopted except that isolated peripheral T cells was used as CCR-5-expressing cells and MIP-1β (50 nM, PeproTech Inc.) was the ligand.

The next data set concerns the target T2, hERG (Homo sapiens, UniProt Q12809).
T2 construct: expressed in transfected cells; host or cells: HEK293
The data set can be described thus: hERG patch clamp. Type of data set: cell-based. As to conditions: read-out: hERG patch clamp (% Inhib.). The method, then:
Whole-cell patch-clamp was used to directly measure hERG currents in HEK-293 cells stably expressing the cloned hERG potassium channel α subunit. […] Repetitive test pulses (0.05 Hz) were applied from a holding potential of −80 mV to +20 mV for 2 seconds and tail currents were elicited following the test pulses by stepping the voltage to −65 mV. The effects from the compound were calculated by measuring inhibition of peak tail current
(In general: Block of hERG is tested as a sign of cardiac risk.)

Data set [2] has as its target T3, human CCR-2 (Homo sapiens, UniProt P41597).
T3 sequence (P41597 1-360 isoform P41597-2): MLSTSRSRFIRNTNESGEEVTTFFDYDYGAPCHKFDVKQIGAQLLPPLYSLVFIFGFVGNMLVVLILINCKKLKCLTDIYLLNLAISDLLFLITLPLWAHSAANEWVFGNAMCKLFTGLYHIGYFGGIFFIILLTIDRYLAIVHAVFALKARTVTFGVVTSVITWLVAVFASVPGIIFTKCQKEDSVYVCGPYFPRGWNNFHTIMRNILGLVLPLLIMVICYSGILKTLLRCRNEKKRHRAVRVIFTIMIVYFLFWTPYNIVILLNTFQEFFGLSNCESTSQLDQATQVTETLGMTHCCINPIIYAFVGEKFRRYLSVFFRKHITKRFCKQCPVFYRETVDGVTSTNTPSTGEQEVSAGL
The data set can be described thus: 125I-mouse MCP-1 binding to human CCR-2-expressing cells (hPBMCs). Also on record: hPBMCs were isolated from human leukopak; host or cells: human peripheral blood mononuclear cells. As to conditions: read-out: in vitro IC50 for inhibition of 125I-mouse MCP-1 binding to human CCR-2-expressing cells (hPBMCs).

The target of data set [3] is T1, CCR-5. Nature of the data set: CCR-5 whole blood CD11b upregulation. Type of data set: cell-based. As to conditions: MIP-1β 50 nM. How it is done: Similar procedure to the CCR-2 whole blood CD11b upregulation procedure set forth above was adopted except that MIP-1β (50 nM) was used as the ligand.
Data set [4] has as its target T1, CCR-5. The data set can be described thus: T cell CCR-5 binding assay, 125I-MIP-1β tracer. As to conditions: human peripheral T cells.
Text: The procedure used for T cell CCR-5 binding assay was similar to those for hPBMC CCR-2 binding assay except that human peripheral T cells was used as a source of CCR-5 (see below) and ^125I-MIP-1β as a tracer (Amersham).
as §1

For data set [5], the system named is monocyte/macrophage infiltration. Nature of the data set: 48-hour thioglycollate (TG)-induced peritonitis model in hCCR-2 KI mouse. Type of data set: in vivo. As to conditions: for % inhibition of monocyte/macrophage infiltration: 48 h post TG. The method, then: The hCCR-2 KI mice (C57BL/6-SVJ129) were injected intraperitoneally with 1 ml of thioglycollate (TG) (Hardy Diagnostics). For each study, eight male mice per group were used. Example 1 was dosed orally 1 hour prior to TG injection. The vehicle used was 0.01 N HCl in water. Forty-eight hours post TG injection, peritoneal lavages were performed by injecting 5 ml PBS/10 mM EDTA/10% BSA into the peritoneal cavity.
For the 48-hour TG peritonitis study, Example 1 was dosed twice a day with the first dose one hour prior to TG injection. Total peritoneal cell counts were obtained on isolated cells by a cell counter. Cytospins were performed to determine differential leukocyte counts. The cells were stained for 3 minutes with Wright-Giemsa Stain (Sigma-Aldrich) and then rinsed with deionized water for 5 minutes. Differential counts were calculated based on a total of 200 cells counted per sample. Blood was also collected from the retro-orbital sinus at the end of each study in EDTA for determination of drug concentration.
For flow cytometric analysis, peritoneal exudate cells (1×10^6) were washed once with FACS buffer (PBS/0.5% BSA) and resuspended in FACS buffer. Cells were incubated with an Fc-blocking antibody (BD Pharmingen) on ice for 15 min followed by addition of the following antibodies (BD Pharmingen): PE conjugated anti-F4/80, FITC conjugated anti-Ly6C, and Alexa 647 conjugated anti-hCCR-2. After 45 min on ice, cells were fixed by BD CYTOFIX® for 15 min on ice, washed twice with FACS buffer, and resuspended in 200 μl FACS buffer. Cellular events (40,000) were acquired for each sample and data were analyzed using FloJo software (TreeStar). A FSC/SSC gate was set to include all monocytes (low SSC, higher FSC) while excluding granulocytes from the analysis. This gated population was then analyzed for Ly6C (FITC), F4/80 (PE) expression. Peritoneal monocytes/macrophage numbers were determined by multiplying total peritoneal cell counts obtained by the cell counter and the percentage of monocytes/macrophages identified by F4/80^+ cells from flow cytometry. Statistical significance of differences between means was analyzed using the paired two-tailed t test with significance set at p values below 0.05.
Example 1 was evaluated in the hCCR-2 KI mouse TG peritonitis model to determine its EC50 in inhibiting monocyte/macrophage infiltration. Mice were administered thioglycollate, and dosed orally with Example 1 at 10, 50, or 160 mg/kg BID. Forty eight hours post TG treatment, peritoneal lavage was obtained for cellular infiltrate analysis by flow cytometry.

Data set [6] is described as follows: Single-dose pharmacokinetics in monkeys. As to conditions: male, cynomolgus monkey, 1 mg/kg.
Experimental: The pharmacokinetics of various test compounds were evaluated in male cynomolgus monkeys in a crossover-design. Monkeys were fasted overnight prior to PO dosing and fed 4 h post dose. A group of 1-3 animals (3 to 5 kg) received the compound by IV infusion (over 10 min) via a femoral vein and by oral gavage, with a 1-week washout between treatments. Serial blood samples (˜0.3 mL) were collected from a femoral artery at 0.17 (IV only), 0.25, 0.5, 0.75, 1, 2, 4, 6, 8, and 24 h post dose, and centrifuged at 4° C. (1500-2000×g) to obtain plasma. Samples were stored at −20° C. until analysis by LC/MS/MS.
The pharmacokinetic parameters were obtained by non-compartmental analysis of plasma concentration vs. time data (Kinetica software, Version 4.2, InnaPhase Corporation, Philadelphia, Pa.). The peak concentration (Cmax) and time for Cmax were recorded directly from experimental observations. The area under the curve from time zero to the last sampling time (AUC(0-T)) was calculated using a combination of linear and log trapezoidal summations. The total plasma clearance (CLTp), steady-state volume of distribution (Vss), apparent elimination half-life (T½) and mean residence time (MRT) were estimated after IV administration. Estimations of T½ was made using a minimum of 3 time points with quantifiable concentrations. The absolute oral bioavailability (F) was estimated as the ratio of dose-normalized AUC values following oral and IV doses.
For data set [7], the target named is T3, human CCR-2. The data set can be described thus: CCR-2 calcium mobilization, THP-1 cells. Type of data set: cell-based. As to conditions: MCP-1 10 nM, read-out: CCR-2 Ca2+ Flux IC50. How it is done: All conditions were tested in duplicate.
Background: Calcium flux is commonly read through the fluorescence of an indicator in the cells.

Data set [8] in a line: Parallel Artificial Membrane Permeability Assay (PAMPA). The data set is classed as in vitro ADME. As to conditions: pH 7.4. For orientation: In PAMPA a lipid-coated filter parts donor from acceptor wells.
Text: The Parallel Artificial Membrane Permeability Assay (PAMPA) consists of a specially formulated lecithin-based lipid combination referred to as the gastrointestinal tract (GIT) lipid. The GIT lipid is used to form a membrane in a sandwich plate assembly similar to that used in the Caco-2 assays. The GIT lipid closely resembles in vivo membrane composition and performance as measured by standard compounds that are known to be passively absorbed in humans. […] The rate of passage of compounds through the PAMPA membrane is used to determine a permeability coefficient (Pc), which can be related to the in vivo passive permeability of the compound.
The permeability coefficient (Pc) of a particular compound is examined in a pH-dependent setting with apical and basolateral pH of 7.4. All experiments are conducted in triplicate determinations.
The PAMPA assay plate (donor side and acceptor side) was combined and allowed to incubate at room temperature for 4 hours. […] The donor, acceptor, reference, and blank plates were read in the SPECTRAMAX® UV plate reader. Data was captured by the pION software, which analyzes the spectra and generates Pc values.

In general, IC50 refers to the concentration that gives 50% inhibition. One may read the bioavailability as the share of a dose that reaches the circulation, judged against a reference dose that is usually intravenous. Low values mean poor availability, high ones good availability. By clearance is commonly meant the rate of elimination divided by the concentration. As usually defined, the AUC is the area under the concentration-time curve, a measure of exposure. A word on the Papp: it is the rate of passage across a membrane or cell layer, normalised by area and donor concentration.

T1 sequence (P51681 whole entry): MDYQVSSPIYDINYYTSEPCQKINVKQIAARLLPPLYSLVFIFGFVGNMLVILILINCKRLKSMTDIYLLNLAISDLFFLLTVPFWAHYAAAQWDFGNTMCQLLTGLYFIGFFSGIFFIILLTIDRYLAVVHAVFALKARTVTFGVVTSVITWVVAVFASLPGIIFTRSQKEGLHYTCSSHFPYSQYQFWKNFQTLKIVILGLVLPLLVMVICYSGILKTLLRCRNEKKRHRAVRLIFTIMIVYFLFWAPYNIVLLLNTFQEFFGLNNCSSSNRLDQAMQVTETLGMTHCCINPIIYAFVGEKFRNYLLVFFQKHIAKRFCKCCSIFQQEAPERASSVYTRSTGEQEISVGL
T2 sequence (Q12809 whole entry): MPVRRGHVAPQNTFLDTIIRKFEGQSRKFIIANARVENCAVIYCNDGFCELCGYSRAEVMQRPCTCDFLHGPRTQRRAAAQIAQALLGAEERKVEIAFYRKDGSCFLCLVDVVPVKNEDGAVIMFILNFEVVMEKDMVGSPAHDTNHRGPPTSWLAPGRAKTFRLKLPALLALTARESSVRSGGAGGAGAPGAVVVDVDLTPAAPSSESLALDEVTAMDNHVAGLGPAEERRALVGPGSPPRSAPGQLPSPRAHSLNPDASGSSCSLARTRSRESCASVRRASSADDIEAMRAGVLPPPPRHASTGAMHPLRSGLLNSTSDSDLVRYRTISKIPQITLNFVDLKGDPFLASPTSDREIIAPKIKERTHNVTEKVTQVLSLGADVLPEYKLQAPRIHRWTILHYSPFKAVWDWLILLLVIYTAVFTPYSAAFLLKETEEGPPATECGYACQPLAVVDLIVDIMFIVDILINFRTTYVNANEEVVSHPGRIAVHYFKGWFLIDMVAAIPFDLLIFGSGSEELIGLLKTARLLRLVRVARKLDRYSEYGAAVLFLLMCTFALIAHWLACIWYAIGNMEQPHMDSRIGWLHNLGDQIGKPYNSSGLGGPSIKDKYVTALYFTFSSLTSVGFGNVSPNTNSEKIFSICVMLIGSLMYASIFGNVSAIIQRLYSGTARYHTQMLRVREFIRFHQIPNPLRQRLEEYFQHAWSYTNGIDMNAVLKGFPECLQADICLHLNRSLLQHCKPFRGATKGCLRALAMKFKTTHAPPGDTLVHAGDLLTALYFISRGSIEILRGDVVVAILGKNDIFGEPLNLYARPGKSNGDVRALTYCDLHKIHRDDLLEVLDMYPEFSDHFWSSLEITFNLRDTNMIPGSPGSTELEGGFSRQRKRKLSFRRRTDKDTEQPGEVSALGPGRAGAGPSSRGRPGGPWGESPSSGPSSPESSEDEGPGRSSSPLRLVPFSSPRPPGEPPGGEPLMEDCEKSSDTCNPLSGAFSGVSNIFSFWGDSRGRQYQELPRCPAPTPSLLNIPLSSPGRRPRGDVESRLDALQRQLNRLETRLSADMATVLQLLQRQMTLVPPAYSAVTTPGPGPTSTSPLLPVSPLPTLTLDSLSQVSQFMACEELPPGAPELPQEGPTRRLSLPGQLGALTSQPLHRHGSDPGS

In the case of `CC(=O)N[C@@H]1C[C@H](NC(C)(C)C)CC[C@@H]1N1CC[C@H](Nc2ncnc3cc(C(C)(C)C)nn23)C1=O` [Example 1, N-((1R,2 S,5R)-5-(tert-Butylamino)-2-((S)-3-(7-tert-butylpyrazolo[1,5-a][1,3,5]triazin-4-ylamino)-2-oxopyrrolidin-1-yl)cyclohexyl)acetamide], the concentration for half-maximal inhibition (IC50) on CCR-5 [1] is 1.1 ± 0.6 nM; on human CCR-2 [2], 5.8 ± 2.3 nM; against CCR-5 [3], 5.7 nM; at CCR-5 [4], 3.6 ± 1.8 nM; at human CCR-2 [7], 2.9 ± 1.5 nM. In addition, the inhibition at 10000 nM at hERG (pH 7.4, 10,000 nM) is 1.2%. For the same molecule, the inhibition at 30000 nM on hERG (pH 7.4, 30,000 nM) worked out at 9.2%. For the same molecule, the “% inhibition of monocyte/macrophage infiltration” value in data set [5] (10 mg/kg oral BID) came to 25%; in data set [5] (50 mg/kg oral BID), 54%; in [5] (160 mg/kg oral BID), 63%; in data set [5] (200 mg/kg (different study), oral BID), 71%. Besides, the EC50 in data set [5] (Mus musculus, estimated from four separate studies, hCCR-2 KI mouse, read-out: average EC50 for inhibition of monocyte/macrophage infiltration) is 4.9 nM. Moreover, the “maximal inhibition of monocyte/macrophage infiltration reached” value in [5] (four separate studies with multiple doses) is on record as approximately 70%. Also, in [6] (in vivo), the bioavailability was determined as 63%. Also, the clearance in [6] (plasma, intravenous) was found to be 16.4 mL/min/kg. The exposure (AUC) in data set [6] (plasma, oral) was 1.3 µM·h. In [8], the Papp at 4 h, 100 µM is 33.6 ×10⁻⁶ cm/s.
